Assay results from patent US8603545B2, “Cosmetic and pharmaceutical uses of an extract of a plant belonging to the genus Buchholzia” (BASF Beauty Care Solutions France S.A.S., priority 2004, dated 2013).

How the values were obtained:
Format in all cases: cell-based
human keratinocytes = test: Inhibition of UVB effect on human keratinocytes
Text: Aim of the experiment: Determination of the potential of the tested ingredient to reduce negative effects of UV-B radiation on the survival rate of human keratinocytes. It is well known that UV-B radiation induces a cutaneous inflammation by stimulation of enzymes such as phospholipase A2 (PLA2). This enzyme catalyses the release of arachidonic acid which is a precursor of mediators of inflammation like the prostaglandin PGE2. Moreover this membrane stress results in the release of a cytoplasmic enzyme: lactate dehydrogenase (LDH). • Seeding of human keratinocytes in a growth medium • Incubation for 3 days at 37° C., CO2=5% (atmosphere: 5% carbon dioxide in air) • Exchange of the growth medium by balanced salt solution with a range of concentration of ingredients to be tested • Irradiation of keratinocytes by UV-B: 30 mJ/cm^2 • Incubation for 1 day at 37° C., CO2=5% • Recording of cell number by DNA measurement with a fluorescent probe • Recording of the level of released LDH (by an enzymatic reaction) and released PGE2 (by ELISA method) Results in % against control (average of 2 assays in triplicate): […]

B16 melanocytes = test: Inhibition of melanin synthesis, efficacy test on B16 melanocytes
Protocol: Aim of the experiment: to evaluate the potential of compounds to lower the melanin synthesis; the compounds have been tested on a cell culture of melanocytes called B16. • Seeding of melanocytes in growth medium • Incubation for 3 days at 37° C., CO2=5% (atmosphere: 5% carbon dioxide in air) • Exchange of the growth medium by a medium with a range of concentration of ingredients to be tested • Incubation for 3 days at 37° C., CO2=5% (atmosphere: 5% carbon dioxide in air) • Recording of Cellular levels of protein by Bradford's method • Recording of melanin by a spectrophotometric method (OD at 475 nm) Results in % against control (average of 2 assays in triplicate): […]

human fibroblasts = test: Inhibition of UVA effect on human fibroblasts
Protocol: Aim of the experiment: Determination of the potential of the tested ingredient to reduce negative effects of UV-A radiation on the survival rate of human fibroblasts.
• Seeding of human fibroblasts in a growth medium • Incubation for 3 days at 37° C., CO2=5% (atmosphere: 5% carbon dioxide in air) • Exchange of the growth medium by a medium with a range of concentration of ingredients to be tested • Incubation for 2 days at 37° C., CO2=5% • Exchange of the medium with ingredients by a balanced salt solution and UV-A irradiation (20 J/cm^2) • Recording of released MDA levels by spectro-fluorimetry. (MDA (malonaldialdehyde) is a product of oxidative degradation of lipids from cell membranes) • Recording of intracellular proteins by Bradford's method
Results in % against control (average of 2 assays in triplicate): […]

[1] = UV-B 30 mJ/cm2, dose 0.03 % w/v
[2] = UV-A 20 J/cm2, dose 0.0003 % w/v

CC(=O)Oc1ccccc1C(=O)O [Aspirin ®, Aspirin]
level of cell number from UV-B irradiated keratinocytes (in words) (human keratinocytes): strongly increased
level of released LDH from UV-B irradiated keratinocytes (in words) (human keratinocytes): strongly decreased
level of released PGE2 from UV-B irradiated keratinocytes (in words) (human keratinocytes): strongly decreased
Cell number (human keratinocytes; [1]): 59 % against control
Level of released LDH (human keratinocytes; [1]): 8 % against control
Level of released PGE2 (human keratinocytes; [1]): 0 % against control

O=c1cc(CO)occ1O [kojic acid]
rate of released melanin from treated B16 melanocytes (in words) (B16 melanocytes): strongly decreased
Rate of cellular proteins (B16 melanocytes; dose 0.03 % w/v): 117 % against control
Rate of melanin (B16 melanocytes; dose 0.03 % w/v): 34 % against control

Vitamin E
rate of released MDA from UV-A irradiated fibroblasts (in words) (human fibroblasts): strongly decreased
Intracellular proteins (human fibroblasts; [2]): 103 % against control
Rate of released MDA (human fibroblasts; [2]): 25 % against control
